The source of these data is US20230123334A1, “AMINO LIPID COMPOUND, PREPARATION METHOD THEREFOR, AND APPLICATION THEREOF” (SHENZHEN SHENXIN BIOTECHNOLOGY CO., LTD., priority 2020, published 2023).

In assay [1] the test system is HEK293 cells. The experiment in a line: Preliminary screening as DNA vectors, GFP transfection of HEK293 cells. The class given is cell-based. The settings on record: HEK293 cells; lipid/DOPE liposome with 75 ng plasmid DNA (psin-EGFP-IRES-Puro); number of cells expressing GFP divided by total number of nuclei (Hoechst). An outline of the steps: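 First, amino lipid and DOPE were vortexed in sodium acetate buffer (pH 5.6) to form liposomes. Next, these were held with 75 ng EGFP plasmid at room temperature for 30 min. Finally, HEK293 cells were added, cultured at 37° C., Hoechst-stained, and GFP+/total nuclei scored by imaging.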

The subject of assay [2] is HEK293 cells. Nature of the assay: Preliminary screening as mRNA vectors, EGFP mRNA transfection of HEK293 cells. It counts as cell-based. The settings on record: HEK293 cells, 96-well plates, EGFP mRNA 50 ng per well; percentage of GFP fluorescent cells relative to total number of cells (Hoechst). An outline of the steps:
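Screening format: EGFP mRNA transfection (50 ng/well) into HEK293 in 10% FBS-supplemented DMEM. Percent green fluorescent cells, normalised to Hoechst nuclear count, gave the value; Lipofectamine2000 was the reference transfectant.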

Consider `CCCCCCCCCCCCCCCCCCNc1nc(NCCCCCCCCCCCC)nc(NCCN2CCCCC2)n1` [Compound N12N18D4], for which, in assay [1], the “Absolute DNA transfection efficiency in HEK293 cells” value (“Absolute DNA transfection efficiency” below) turned out to be 0.9%. Besides, in assay [2], the “Absolute mRNA transfection efficiency in HEK293 cells” value (shortened to “Absolute mRNA transfection efficiency”) was determined as 1.9%.
Take `CCCCCCCCCCCCCCCCCCNc1nc(NCCCCCCCCCCCC)nc(NCCN2CCN(C)CC2)n1` [Compound N12N18D5]: the “Absolute DNA transfection efficiency” value in assay [1] was 0.0%. Moreover, the “Absolute mRNA transfection efficiency” value in assay [2] is listed as 1.9%.
As for `CCCCCCCCCCCCCCCCCCNc1nc(NCCCCCCCCCCCC)nc(NCCCN(C)C)n1` [Compound N12N18D6], the “Absolute DNA transfection efficiency” value in assay [1] was found to be 1.5%. The “Absolute mRNA transfection efficiency” value in assay [2] was determined as 4.8%.
For `CCCCCCCCCCCCCCCCCCNc1nc(NCCCCCCCCCCCC)nc(NCCN(CC)CC)n1` [Compound N12N18D7], the “Absolute DNA transfection efficiency” value in assay [1] came to 1.2%. Moreover, the “Absolute mRNA transfection efficiency” value in assay [2] worked out at 1.4%.
For the molecule `CCCCCCCCCCCCCCCCCCNc1nc(NCCCCCCCCCCCC)nc(NCCCN2CCOCC2)n1` [Compound N12N18D8], in assay [1], the “Absolute DNA transfection efficiency” value is reported as 1.5%. Also, the “Absolute mRNA transfection efficiency” value in assay [2] was found to be 0.5%.
Turning to `CCCCCCCCCCCCCCCCCCNc1nc(NCCCCCCCCCCCC)nc(NCCCN2CCN(C)CC2)n1` [Compound N12N18D9], in assay [1], the “Absolute DNA transfection efficiency” value turned out to be 0.1%. In addition, the “Absolute mRNA transfection efficiency” value in assay [2] was 0.7%.
On to `CCCCCCCCCCCCCCCCCCNc1nc(NCCCCCCCCCCCC)nc(NCC2CCN(C)CC2)n1` [Compound N12N18D10], for which, in assay [1], the “Absolute DNA transfection efficiency” value is 0.0%. The “Absolute mRNA transfection efficiency” value in assay [2] is listed as 1.0%.
Take `CCCCCCCCCCCCCNc1nc(NCCCCCCCCCCCCC)nc(NCCN(C)C)n1` [Compound N13N13D1]: in assay [1], the “Absolute DNA transfection efficiency” value worked out at 1.5%. Further, the “Absolute mRNA transfection efficiency” value in assay [2] amounted to 0.4%.
As for `CCCCCCCCCCCCCNc1nc(NCCCCCCCCCCCCC)nc(NCCN2CCOCC2)n1` [Compound N13N13D2], the “Absolute DNA transfection efficiency” value in assay [1] was 0.0%. For the same molecule, the “Absolute mRNA transfection efficiency” value in assay [2] is given as 0.9%.
For `CCCCCCCCCCCCCNc1nc(NCCCCCCCCCCCCC)nc(NCCN2CCCC2)n1` [Compound N13N13D3], the “Absolute DNA transfection efficiency” value in assay [1] amounted to 0.7%. Further, the “Absolute mRNA transfection efficiency” value in assay [2] is reported as 3.5%.
The matching figures for `CCCCCCCCCCCCCNc1nc(NCCCCCCCCCCCCC)nc(NCCN2CCCCC2)n1` [Compound N13N13D4]: 1.5% and 3.3%.
The matching figures for `CCCCCCCCCCCCCNc1nc(NCCCCCCCCCCCCC)nc(NCCN2CCN(C)CC2)n1` [Compound N13N13D5]: 0.9% and 1.7%.
`CCCCCCCCCCCCCNc1nc(NCCCCCCCCCCCCC)nc(NCCCN(C)C)n1` [Compound N13N13D6]: the “Absolute DNA transfection efficiency” value in assay [1] was determined as 2.5%. Also, the “Absolute mRNA transfection efficiency” value in assay [2] stood at 0.2%.
The like results for `CCCCCCCCCCCCCNc1nc(NCCCCCCCCCCCCC)nc(NCCN(CC)CC)n1` [Compound N13N13D7] were, in that order, 0.1% and 1.1%.
The like results for `CCCCCCCCCCCCCNc1nc(NCCCCCCCCCCCCC)nc(NCCCN2CCOCC2)n1` [Compound N13N13D8] were, in that order, 1.4% and 0.3%.
With `CCCCCCCCCCCCCNc1nc(NCCCCCCCCCCCCC)nc(NCCCN2CCN(C)CC2)n1` [Compound N13N13D9], the “Absolute DNA transfection efficiency” value in assay [1] stood at 1.1%. Besides, the “Absolute mRNA transfection efficiency” value in assay [2] is listed as 0.2%.
For `CCCCCCCCCCCCCNc1nc(NCCCCCCCCCCCCC)nc(NCC2CCN(C)CC2)n1` [Compound N13N13D10], in assay [1], the “Absolute DNA transfection efficiency” value was 0.3%. In assay [2], the “Absolute mRNA transfection efficiency” value turned out to be 2.9%.
Consider `CCCCCCCCCCCCCCCNc1nc(NCCCCCCCCCCCCC)nc(NCCN(C)C)n1` [Compound N13N15D1], for which the “Absolute DNA transfection efficiency” value in assay [1] came out at 1.5%. Moreover, the “Absolute mRNA transfection efficiency” value in assay [2] came to 1.4%.
The matching figures for `CCCCCCCCCCCCCCCNc1nc(NCCCCCCCCCCCCC)nc(NCCN2CCOCC2)n1` [Compound N13N15D2]: 0.0% and 1.4%.
With `CCCCCCCCCCCCCCCNc1nc(NCCCCCCCCCCCCC)nc(NCCN2CCCC2)n1` [Compound N13N15D3], the “Absolute DNA transfection efficiency” value in assay [1] was 1.4%. Also, in assay [2], the “Absolute mRNA transfection efficiency” value came to 4.7%.
`CCCCCCCCCCCCCCCNc1nc(NCCCCCCCCCCCCC)nc(NCCN2CCCCC2)n1` [Compound N13N15D4]: in assay [1], the “Absolute DNA transfection efficiency” value came to 0.0%. In assay [2], the “Absolute mRNA transfection efficiency” value stood at 0.0%.
On to `CCCCCCCCCCCCCCCNc1nc(NCCCCCCCCCCCCC)nc(NCCN2CCN(C)CC2)n1` [Compound N13N15D5], for which the “Absolute DNA transfection efficiency” value in assay [1] is given as 0.2%. For the same molecule, in assay [2], the “Absolute mRNA transfection efficiency” value came to 0.8%.
As to `CCCCCCCCCCCCCCCNc1nc(NCCCCCCCCCCCCC)nc(NCCCN(C)C)n1` [Compound N13N15D6], the “Absolute DNA transfection efficiency” value in assay [1] is 0.3%. The “Absolute mRNA transfection efficiency” value in assay [2] was 0.0%.
On to `CCCCCCCCCCCCCCCNc1nc(NCCCCCCCCCCCCC)nc(NCCN(CC)CC)n1` [Compound N13N15D7], for which, in assay [1], the “Absolute DNA transfection efficiency” value is on record as 0.8%. In assay [2], the “Absolute mRNA transfection efficiency” value stood at 3.7%.
Turning to `CCCCCCCCCCCCCCCNc1nc(NCCCCCCCCCCCCC)nc(NCCCN2CCOCC2)n1` [Compound N13N15D8], the “Absolute DNA transfection efficiency” value in assay [1] is reported as 0.0%. For the same molecule, the “Absolute mRNA transfection efficiency” value in assay [2] is listed as 0.0%.
For `CCCCCCCCCCCCCCCNc1nc(NCCCCCCCCCCCCC)nc(NCCCN2CCN(C)CC2)n1` [Compound N13N15D9], the “Absolute DNA transfection efficiency” value in assay [1] was found to be 0.2%. Besides, in assay [2], the “Absolute mRNA transfection efficiency” value stood at 0.5%.
For the molecule `CCCCCCCCCCCCCCCNc1nc(NCCCCCCCCCCCCC)nc(NCC2CCN(C)CC2)n1` [Compound N13N15D10], the “Absolute DNA transfection efficiency” value in assay [1] is recorded as 0.0%. Also, the “Absolute mRNA transfection efficiency” value in assay [2] was 0.4%.
For the molecule `CCCCCCCCCCCCCCCCNc1nc(NCCCCCCCCCCCCC)nc(NCCN(C)C)n1` [Compound N13N16D1], in assay [1], the “Absolute DNA transfection efficiency” value is given as 0.8%. Also, in assay [2], the “Absolute mRNA transfection efficiency” value came out at 1.5%.
The like results for `CCCCCCCCCCCCCCCCNc1nc(NCCCCCCCCCCCCC)nc(NCCN2CCOCC2)n1` [Compound N13N16D2] were, in that order, 0.0% and 1.4%.
For the molecule `CCCCCCCCCCCCCCCCNc1nc(NCCCCCCCCCCCCC)nc(NCCN2CCCC2)n1` [Compound N13N16D3], in assay [1], the “Absolute DNA transfection efficiency” value amounted to 0.4%. Further, the “Absolute mRNA transfection efficiency” value in assay [2] is 1.6%.
For `CCCCCCCCCCCCCCCCNc1nc(NCCCCCCCCCCCCC)nc(NCCN2CCCCC2)n1` [Compound N13N16D4], in assay [1], the “Absolute DNA transfection efficiency” value is listed as 1.0%. Also, in assay [2], the “Absolute mRNA transfection efficiency” value was 4.0%.
The matching figures for `CCCCCCCCCCCCCCCCNc1nc(NCCCCCCCCCCCCC)nc(NCCN2CCN(C)CC2)n1` [Compound N13N16D5]: 0.0% and 0.4%.
As to `CCCCCCCCCCCCCCCCNc1nc(NCCCCCCCCCCCCC)nc(NCCCN(C)C)n1` [Compound N13N16D6], in assay [1], the “Absolute DNA transfection efficiency” value is given as 1.0%. Further, in assay [2], the “Absolute mRNA transfection efficiency” value stood at 3.8%.
As to `CCCCCCCCCCCCCCCCNc1nc(NCCCCCCCCCCCCC)nc(NCCN(CC)CC)n1` [Compound N13N16D7], in assay [1], the “Absolute DNA transfection efficiency” value amounted to 1.5%. The “Absolute mRNA transfection efficiency” value in assay [2] worked out at 0.6%.
Consider `CCCCCCCCCCCCCCCCNc1nc(NCCCCCCCCCCCCC)nc(NCCCN2CCOCC2)n1` [Compound N13N16D8], for which the “Absolute DNA transfection efficiency” value in assay [1] is on record as 0.0%. The “Absolute mRNA transfection efficiency” value in assay [2] is 3.3%.
`CCCCCCCCCCCCCCCCNc1nc(NCCCCCCCCCCCCC)nc(NCCCN2CCN(C)CC2)n1` [Compound N13N16D9]: the “Absolute DNA transfection efficiency” value in assay [1] is listed as 0.0%. In addition, in assay [2], the “Absolute mRNA transfection efficiency” value is 1.4%.
The like results for `CCCCCCCCCCCCCCCCNc1nc(NCCCCCCCCCCCCC)nc(NCC2CCN(C)CC2)n1` [Compound N13N16D10] were, in that order, 0.0% and 1.1%.
For the molecule `CCCCCCCCCCCCCCCCCCNc1nc(NCCCCCCCCCCCCC)nc(NCCN(C)C)n1` [Compound N13N18D1], in assay [1], the “Absolute DNA transfection efficiency” value came to 2.7%. For the same molecule, the “Absolute mRNA transfection efficiency” value in assay [2] stood at 13.8%.
On to `CCCCCCCCCCCCCCCCCCNc1nc(NCCCCCCCCCCCCC)nc(NCCN2CCOCC2)n1` [Compound N13N18D2], for which the “Absolute DNA transfection efficiency” value in assay [1] was 0.2%. Also, the “Absolute mRNA transfection efficiency” value in assay [2] turned out to be 0.0%.
Take `CCCCCCCCCCCCCCCCCCNc1nc(NCCCCCCCCCCCCC)nc(NCCN2CCCC2)n1` [Compound N13N18D3]: the “Absolute DNA transfection efficiency” value in assay [1] amounted to 0.5%. The “Absolute mRNA transfection efficiency” value in assay [2] is recorded as 21.5%.
The matching figures for `CCCCCCCCCCCCCCCCCCNc1nc(NCCCCCCCCCCCCC)nc(NCCN2CCCCC2)n1` [Compound N13N18D4]: 1.8% and 3.1%.
